Laboratory results taken from patent publication US20260226044A1, “PREPARATION OF AN S1P RECEPTOR MODULATOR” (Oppilan Pharma Limited, priority 2023, published 2026).
pEC50: −log10 of the molar value.

Molecular target: T1, human S1P1 (Homo sapiens, UniProt P21453)
T1 construct: CHO-K1 Gαqi5 cells expression full-length human S1P1; expressed in transfected cells; host or cells: CHO-K1 Gαqi5 cells (membranes)
Experiment: GTPγS binding assay (scintillation proximity assay, S1P1 membranes)
Assay type: biochemical
Details: membranes from CHO-K1 Gαqi5 cells expressing full-length human S1P1; GTPγ35S; 60 minutes incubation
Procedure: Example 4: GTPyS Binding Assay
S1P1 membrane is prepared from CHO-K1 Gαqi5 cells expression full-length human S1P1. Scintillation proximity assay (SPA) is performed by incubating membranes, GTPγ^35S, and compounds at various concentrations for 60 minutes. Wheat germ agglutinin-coated SPA beads are added and incubated for 60 minutes before centrifugation and scintillation counting.

T1 sequence (P21453 whole entry): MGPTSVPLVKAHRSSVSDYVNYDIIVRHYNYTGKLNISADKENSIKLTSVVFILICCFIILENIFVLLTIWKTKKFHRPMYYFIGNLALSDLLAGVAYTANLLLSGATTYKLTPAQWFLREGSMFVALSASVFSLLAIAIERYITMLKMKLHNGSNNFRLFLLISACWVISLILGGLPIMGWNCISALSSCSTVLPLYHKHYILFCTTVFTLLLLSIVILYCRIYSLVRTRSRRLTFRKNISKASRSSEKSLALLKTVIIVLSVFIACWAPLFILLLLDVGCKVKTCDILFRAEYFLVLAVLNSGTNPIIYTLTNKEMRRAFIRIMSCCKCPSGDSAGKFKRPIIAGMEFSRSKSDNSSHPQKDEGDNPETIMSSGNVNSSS

**Q.** How did the pEC50 turn out when `O=C1CC[C@@H](Oc2cc(Cl)c(-c3noc(-c4cn5cc(C(F)(F)F)cc(Cl)c5n4)n3)cc2Cl)CN1` [Compound 1, (R)-5-(2,5-dichloro-4-(5-(8-chloro-6-(trifluoromethyl)imidazo[1,2-a]pyridin-2-yl)-1,2,4-oxadiazol-3-yl)phenoxy)piperidin-2-one] was run?
**A.** > 6.00
